The target of assay [1] is T1, Prothrombin (Homo sapiens, UniProt P00734). The assay can be described thus: Inhibition of human thrombin.
The target of assay [2] is T1, Prothrombin. The experiment in a line: Binding affinity to thrombin.

Each structure is given as a SMILES string.

At Prothrombin [1], `N=C(N)NCCCC[C@@H](NC(=O)[C@@H](Cc1ccc(O)cc1)NC(=O)[C@@H]1CCN1C(=O)[C@H](CC1CCCCC1)NC(=O)[C@H]1CC[C@H](CNC(=N)N)CC1)C(N)=O` came in with a Ki of 3 nM. `NCCc1c[nH]c2cc(F)ccc12` had an equilibrium dissociation constant (Kd) on Prothrombin [2] of 6.9 mM.

The values are drawn from ChEMBL document CHEMBL1156691, “Structure of a novel thrombin inhibitor with an uncharged D-amino acid as P1 residue” (Eur J Med Chem, 2008).
